Source: patent US8193369B2, “Benzimidazole cannabinoid agonists” (Janssen Pharmaceutica NV, priority 2007, dated 2012)

Experiments:
[1] = target: T1, human CB2 (hCB2) receptor (Homo sapiens, UniProt P34972); experiment: Inhibition of forskolin-activated cAMP production upon activation of human CB2 receptor (HTRF); type: cell-based; conditions: CHO-K1 cells stably transfected with hCB2; 15 μM forskolin; pEC50=-log(EC50); relative to WIN55212-2
T1 construct: expressed in transfected cells; host or cells: CHO-K1
T1 sequence (P34972 whole entry): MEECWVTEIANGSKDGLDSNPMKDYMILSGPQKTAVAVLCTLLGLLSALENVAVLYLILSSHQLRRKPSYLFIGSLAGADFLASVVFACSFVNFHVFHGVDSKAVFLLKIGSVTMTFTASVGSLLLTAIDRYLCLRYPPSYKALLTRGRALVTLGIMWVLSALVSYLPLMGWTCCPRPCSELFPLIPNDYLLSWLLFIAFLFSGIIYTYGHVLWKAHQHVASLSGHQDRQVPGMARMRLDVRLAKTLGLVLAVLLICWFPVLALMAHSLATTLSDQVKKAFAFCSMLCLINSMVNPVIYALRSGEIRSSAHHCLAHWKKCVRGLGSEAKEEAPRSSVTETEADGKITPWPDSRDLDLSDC
Procedure: D. Pharmacological Examples D.1 Inhibition of cAMP in Response to Activation of the Human CB2 Receptors
Functional activity of the test compounds was assessed by measuring their potency to inhibit forskolin-activated cAMP production upon activation of human CB2 (hCB2) receptor through homogenous time resolved fluorescence (HTRF) assays.
CHO-K1 cells stably transfected with hCB2 were grown up to 80-90% confluence in T175 Falcon flasks in DMEM/NUT MIX F-12 culture medium complemented with 2% Solution A (5.10^6 IU/l penicillin G, 5 g/l streptomycin sulphate, 5.5 g/l pyruvate, 14.6 g/l L-glutamine, 1M NaOH) and 10% foetal calf serum. Before the experiments, medium was removed, cells were washed with PBS/EDTA (140 mM NaCl, 1 mM Na2-EDTA, 8 mM Na2HPO4.2H2O, 8.5 mM KH2PO4, 2.7 mM KCl, 21 mM glucose), resuspended in stimulation buffer (HBSS 1×, IBMX 1 mM, Hepes 5 mM, MgCl2 10 mM, BSA 0.1%, pH 7.4). Cells were diluted to a concentration of 10^6 cells/ml for hCB2 experiments. Assays were performed using the cAMP Dynamic HTRF kit (CIS bio international, France) according to the recommendations of the manufacturer.
For CB2, each well of a 384 flat bottom black polystyrene assay plate (Costar) was filled with 10 μl stimulation buffer containing 15 μM forskolin and either test compound (in 3% DMSO), 3% DMSO or 10 μM Win55212-2 (in 3% DMSO). Then, 20 μl of the diluted hCB2-CHO-K1 cells was added (20,000 cells/well). After 30 minutes incubation in dark at room temperature, 10 μl cAMP-XL665 and 10 μl anti-cAMP cryptate (both at a final dilution of 1/100) was added to the cells.
After equilibration of the reaction mixtures for 1 to 24 hours in dark at room temperature, fluorescence was measured at 665 nm and 620 nm using a Discovery microplate fluorescence counter (Perkin Elmer), and the signal ratio of 665 nm/620 nm was calculated. The signal ratios of the test compounds were expressed relative to the signal ratios of the DMSO control (maximal signal ratio, no inhibition of cAMP) and WIN55212-2 for hCB2, respectively (minimal signal ratio, maximal inhibition of cAMP). From the dose response curves generated for each test compound, the dose at which 50% of the maximal inhibition of cAMP level is observed (EC50, expressed in the Table as pEC50=−log (EC50) values) and the level of inhibition reached with 10 μM of the test compound compared to WIN55212-2 (for hCB2) was calculated.

## CC(C)(C)c1nc2cc(S(=O)(=O)CCCC(F)(F)F)ccc2n1CC1CCN(C=O)CC1 [compound 5]
[1]
  CB2 pEC50: 8.62
other
  melting point: > 100 °C

## CCC(=O)N1CCC(Cn2c(C(C)(C)C)nc3cc(S(=O)(=O)CCCC(F)(F)F)ccc32)CC1.Cl [compound 6]
[1]
  CB2 pEC50: 7.72
other
  melting point: > 100 °C

## COC(=O)N1CCC(Cn2c(C(C)(C)C)nc3cc(S(=O)(=O)CCCC(F)(F)F)ccc32)CC1.Cl [compound 7]
[1]
  CB2 pEC50: 7.77
other
  melting point: > 100 °C

## CC(C)(C)c1nc2cc(S(=O)(=O)CCCC(F)(F)F)ccc2n1CC1CCN(C(=O)C(F)(F)F)CC1.Cl [compound 8]
[1]
  CB2 pEC50: 7.64
other
  melting point: > 100 °C

## COCC(=O)N1CCC(Cn2c(C(C)(C)C)nc3cc(S(=O)(=O)CCCC(F)(F)F)ccc32)CC1 [compound 9]
[1]
  CB2 pEC50: 5.80
other
  melting point: > 100 °C

## CC(=O)N1CCC(Cn2c(C(C)(C)C)nc3cc(S(=O)(=O)CC4CC4)ccc32)CC1 [compound 24]
[1]
  EC50: 9.33 nM
other
  melting point: 150 °C

## CC(=O)N1CCC(Cn2c(C(C)(C)C)nc3cc(S(=O)(=O)Cc4ccc(F)cc4)ccc32)CC1 [compound 25]
[1]
  EC50: 12.3 nM
other
  melting point: > 100 °C

## CC(C)(C)c1nc2cc(S(=O)(=O)CCCO)ccc2n1CC1CCN(C=O)CC1 [compound 26]
[1]
  EC50: 8.91 nM
other
  melting point: > 100 °C

## COCCS(=O)(=O)c1ccc2c(c1)nc(C(C)(C)C)n2CC1CCN(C=O)CC1 [compound 27]
[1]
  EC50: 61.7 nM
other
  melting point: > 100 °C

## CCS(=O)(=O)c1ccc2c(c1)nc(C(C)(C)C)n2CC1CCN(C=O)CC1 [compound 28]
[1]
  EC50: 23.4 nM
other
  melting point: 188 to 190 °C

## CCS(=O)(=O)c1ccc2c(c1)nc(C(C)(C)C)n2CC1CCS(=O)(=O)CC1 [compound 29]
[1]
  EC50: 27.5 nM
other
  melting point: 194 °C

## CC(C)(C)c1nc2cc(S(=O)(=O)CC3CC3)ccc2n1CC1CCS(=O)(=O)CC1 [compound 31]
[1]
  EC50: 8.51 nM
other
  melting point: 234 °C

## CC(=O)N1CCC(Cn2c(C(C)(C)C)nc3cc(S(=O)(=O)c4ccncc4)ccc32)CC1 [compound 34]
[1]
  EC50: 3.89 nM
other
  melting point: 179 °C

## CC(C)(C)c1nc2cc(S(=O)(=O)CC3CC3)ccc2n1CC1CCN(C=O)CC1 [compound 36]
[1]
  CB2 pEC50: 8.66
other
  melting point: 186 °C

## CC(=O)N1CCC(Cn2c(C(C)(C)C)nc3cc(S(=O)(=O)c4nccs4)ccc32)CC1 [compound 40]
[1]
  EC50: 5.89 nM
other
  melting point: 191 °C

## CC(=O)N1CCC(Cn2c(C(C)(C)C)nc3cc(S(=O)(=O)CC4CCC4)ccc32)CC1 [compound 43]
[1]
  EC50: 8.71 nM
other
  melting point: 155 °C

## CCC(CC)S(=O)(=O)c1ccc2c(c1)nc(C(C)(C)C)n2CC1CCN(C(C)=O)CC1 [compound 61]
[1]
  EC50: 2.51 nM

## CC(=O)N1CCC(Cn2c(C(C)(C)C)nc3cc(S(=O)(=O)c4cccnc4)ccc32)CC1 [compound 62]
[1]
  EC50: 5.25 nM

## CC(=O)N1CCC(Cn2c(C(C)(C)C)nc3cc(S(=O)(=O)c4ccc[n+]([O-])c4)ccc32)CC1 [compound 63]
[1]
  EC50: 15.5 nM

## CC(=O)N1CCC(Cn2c(C(C)(C)C)nc3cc(S(=O)(=O)C(C)C)ccc32)CC1 [compound 64]
[1]
  EC50: 12.9 nM

## CCCC(CCC)Sc1ccc2c(c1)nc(C(C)(C)C)n2CC1CCN(C(C)=O)CC1 [compound 65]
[1]
  EC50: 1.74 nM

## CC(=O)N1CCC(Cn2c(C(C)(C)C)nc3cc(Sc4cccs4)ccc32)CC1 [compound 66]
[1]
  EC50: 2.24 nM

## CC(=O)N1CCC(Cn2c(C(C)(C)C)nc3cc(S(=O)(=O)Cc4ccc([N+](=O)[O-])cc4)ccc32)CC1 [compound 69]
[1]
  EC50: 5.89 nM

## CC(=O)N1CCC(Cn2c(C(C)(C)C)nc3cc(Sc4ccccc4Cl)ccc32)CC1 [compound 70]
[1]
  EC50: 0.0871 nM

## CC(=O)N1CCC(Cn2c(C(C)(C)C)nc3cc(SCc4ccccc4)ccc32)CC1 [compound 72]
[1]
  EC50: 12.9 nM

## CC(=O)Nc1ccc(CS(=O)(=O)c2ccc3c(c2)nc(C(C)(C)C)n3CC2CCN(C(C)=O)CC2)cc1 [compound 79]
[1]
  EC50: 5.89 nM

## CC(=O)N1CCC(Cn2c(C(C)(C)C)nc3cc(S(=O)(=O)Cc4ccc(N(C)C(C)=O)cc4)ccc32)CC1 [compound 80]
[1]
  EC50: ~46.8 nM

## COCCCOc1cccc(S(=O)(=O)c2ccc3c(c2)nc(C(C)(C)C)n3CC2CCN(C(C)=O)CC2)c1 [compound 86]
[1]
  EC50: 5.37 nM

## CC(=O)N1CCC(Cn2c(C(C)(C)C)nc3cc(Sc4ccc(C(F)(F)F)cc4)ccc32)CC1 [compound 87]
[1]
  EC50: ~10 nM

## CC(=O)N1CCC(Cn2c(C(C)(C)C)nc3cc(Sc4cccc(Cl)c4)ccc32)CC1 [compound 89]
[1]
  EC50: ~0.11 nM

## CC(=O)N1CCC(Cn2c(C(C)(C)C)nc3cc(Sc4cccc(C(F)(F)F)c4)ccc32)CC1 [compound 91]
[1]
  EC50: ~0.832 nM

## CC(=O)N1CCC(Cn2c(C(C)(C)C)nc3cc(S(=O)(=O)c4cccc(C(F)(F)F)c4)ccc32)CC1 [compound 92]
[1]
  EC50: 4.07 nM

## CC(=O)N1CCC(Cn2c(C(C)(C)C)nc3cc(Sc4ccccc4C#N)ccc32)CC1 [compound 93]
[1]
  EC50: ~0.24 nM

## CC(=O)N1CCC(Cn2c(C(C)(C)C)nc3cc(S(=O)(=O)c4ccccc4C#N)ccc32)CC1 [compound 94]
[1]
  EC50: ~3.31 nM

## CC(=O)N1CCC(Cn2c(C(C)(C)C)nc3cc(Sc4cccc(OCCCC#N)c4)ccc32)CC1 [compound 95]
[1]
  EC50: ~2.69 nM

## CC(=O)N1CCC(Cn2c(C(C)(C)C)nc3cc(S(=O)(=O)c4cccc(OCCCC#N)c4)ccc32)CC1 [compound 96]
[1]
  EC50: 3.55 nM

## CC(=O)N1CCC(Cn2c(C(C)(C)C)nc3cc(Sc4cccc(N(C)C)c4)ccc32)CC1 [compound 97]
[1]
  EC50: 4.79 nM

## CC(=O)N1CCC(Cn2c(C(C)(C)C)nc3cc(S(=O)(=O)c4cccc(N(C)C)c4)ccc32)CC1 [compound 98]
[1]
  EC50: 4.57 nM

## CC(=O)N1CCC(Cn2c(C(C)(C)C)nc3cc(S(=O)(=O)c4cccc(OC(C)C)c4)ccc32)CC1 [compound 100]
[1]
  EC50: 2.34 nM

## COc1cccc(OC)c1Sc1ccc2c(c1)nc(C(C)(C)C)n2CC1CCN(C(C)=O)CC1 [compound 101]
[1]
  EC50: ~0.513 nM

## COc1cccc(OC)c1S(=O)(=O)c1ccc2c(c1)nc(C(C)(C)C)n2CC1CCN(C(C)=O)CC1 [compound 102]
[1]
  EC50: ~3.47 nM

## CC(=O)N1CCC(Cn2c(C(C)(C)C)nc3cc(S(=O)(=O)c4ccoc4)ccc32)CC1 [compound 103]
[1]
  EC50: ~3.8 nM

## CC(=O)N1CCC(Cn2c(C(C)(C)C)nc3cc(S(=O)(=O)c4ccc(OC(F)(F)F)cc4)ccc32)CC1 [compound 104]
[1]
  EC50: ~23.4 nM

## CC(=O)N1CCC(Cn2c(C(C)(C)C)nc3cc(S(=O)(=O)c4ccc(F)c(C#N)c4)ccc32)CC1 [compound 105]
[1]
  EC50: ~1.29 nM

## COc1ccc(S(=O)(=O)c2ccc3c(c2)nc(C(C)(C)C)n3CC2CCN(C(C)=O)CC2)c(OC)c1 [compound 106]
[1]
  EC50: ~22.9 nM

## CC(=O)N1CCC(Cn2c(C(C)(C)C)nc3cc(S(=O)(=O)c4ccc(C(F)(F)F)cc4Cl)ccc32)CC1 [compound 107]
[1]
  EC50: ~7.41 nM

## COc1cccc(S(=O)(=O)c2ccc3c(c2)nc(C(C)(C)C)n3CC2CCN(C(C)=O)CC2)c1OC [compound 108]
[1]
  EC50: ~13.8 nM

## COc1ccccc1S(=O)(=O)c1ccc2c(c1)nc(C(C)(C)C)n2CC1CCN(C(C)=O)CC1 [compound 109]
[1]
  EC50: ~8.71 nM

## CC(=O)N1CCC(Cn2c(C(C)(C)C)nc3cc(S(=O)(=O)c4ccc(N)c(Cl)c4)ccc32)CC1 [compound 110]
[1]
  EC50: ~10 nM

## CC(=O)N1CCC(Cn2c(C(C)(C)C)nc3cc(S(=O)(=O)c4c(F)cccc4F)ccc32)CC1 [compound 111]
[1]
  EC50: ~16.6 nM

## CC(=O)N1CCC(Cn2c(C(C)(C)C)nc3cc(S(=O)(=O)c4cccc(C#N)c4C)ccc32)CC1 [compound 112]
[1]
  EC50: ~16.6 nM

## CC(=O)N1CCC(Cn2c(C(C)(C)C)nc3cc(S(=O)(=O)c4ccccc4C(F)(F)F)ccc32)CC1 [compound 113]
[1]
  EC50: ~2.51 nM

## CC(=O)N1CCC(Cn2c(C(C)(C)C)nc3cc(S(=O)(=O)c4c(F)cc(F)cc4F)ccc32)CC1 [compound 114]
[1]
  EC50: ~4.17 nM

## CC(=O)N1CCC(Cn2c(C(C)(C)C)nc3cc(S(=O)(=O)c4c(C)cccc4C)ccc32)CC1 [compound 115]
[1]
  EC50: ~8.32 nM

## CC(=O)N1CCC(Cn2c(C(C)(C)C)nc3cc(S(=O)(=O)c4cccc(N5CCOCC5)c4)ccc32)CC1 [compound 116]
[1]
  EC50: ~44.7 nM
